In patent US8637525B2, “Compounds for the reduction of beta-amyloid production” (Bristol-Myers Squibb Company, priority 2009, dated 2014):

System: Aβ1-42 production
Experiment: Cellular assay for inhibition of Aβ1-42 production (H4 APP751 SWE clone 8.20)
Assay type: cell-based
Conditions: 19 h, H4 APP751 SWE clone 8.20 cells, 19 h incubation; class symbols; read-out: Activity Rating (Aβ42 cellular IC50)
In short: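 Inhibition values are IC50s fitted to Viewlux counts after a 19 h compound exposure at 37 °C. Aβ42 was captured by the neoepitope-specific antibody 565 (0.8 ng/well) paired with N-terminal 26D6 (75 ng/well), incubated overnight at 4 °C in pH 7.4 Tris-HCl buffer containing 0.2% BSA.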

| Compound | IC50 |
| --- | --- |
| COc1cc(Nc2nc3c(c(N4CCC(N(C)C)C4)n2)CCC3c2ccc(F)cc2)ccc1-n1cnc(Cl)c1 (single isomer, unassigned) [Example 29A, N-(4-(4-chloro-1H-imidazol-1-yl)-3-methoxyphenyl)-4-(3-(dimethylamino)pyrrolidin-1-yl)-7-(4-fluorophenyl)-6,7-dihydro-5H-cyclopenta[d]pyrimidin-2-amine] | 10 to 100 nM |
| COc1cc(Nc2nc3c(c(N4CCN(C)CC4)n2)CCC3c2ccc(F)cc2)ccc1-n1cnc(Cl)c1 (single isomer, unassigned) [Example 30A, N-(4-(4-chloro-1H-imidazol-1-yl)-3-methoxyphenyl)-7-(4-fluorophenyl)-4-(4-methylpiperazin-1-yl)-6,7-dihydro-5H-cyclopenta[d]pyrimidin-2-amine] | 10 to 100 nM |
| COc1cc(Nc2nc3c(c(N4CC[C@H](F)C4)n2)CCC3c2ccc(F)cc2)ccc1-n1cnc(Cl)c1 (single isomer, unassigned) [Example 36] | 10 to 100 nM |
| COc1cc(Nc2nc3c(c(N4CC[C@H](F)C4)n2)CCC3c2ccc(F)cc2)ccc1-n1cnc(Cl)c1 (single isomer, unassigned) [Example 37] | 1.5 to 9.9 nM |
| CNc1nc(Nc2ccc(-n3cnc(C)n3)c(OC)c2)nc2c1CCC2c1ccc(F)cc1 (single isomer, unassigned) [Example 44A, 7-(4-fluorophenyl)-N2-(3-methoxy-4-(3-methyl-1H-1,2,4-triazol-1-yl)phenyl)-N4-methyl-6,7-dihydro-5H-cyclopenta[d]pyrimidine-2,4-diamine] | 1.5 to 9.9 nM |

More lines, now with the values ahead:

| IC50 | Compound |
| --- | --- |
| 1.5 to 9.9 nM | CC[C@H](COC)Nc1nc(Nc2ccc(-n3cnc(Cl)c3)c(OC)c2)nc2c1CCC2c1ccc(F)cc1 (single isomer, unassigned) [Example 48A] |
| 1.5 to 9.9 nM | CNc1nc(Nc2ccc(-n3cnc(Cl)c3)c(OC)c2)nc2c1COCC2c1ccccc1 (single isomer, unassigned) [Example 51A, N^2-(4-(4-chloro-1H-imidazol-1-yl)-3-methoxyphenyl)-N^4-methyl-8-phenyl-7,8-dihydro-5H-pyrano[4,3-d]pyrimidine-2,4-diamine] |

Same assay, conditions: 19 h, H4 APP751 SWE clone 8.20 cells, 19 h incubation; read-out: Activity Rating (Aβ42 cellular IC50), numeric value

| IC50 | Compound |
| --- | --- |
| 230 nM | COc1cc(Nc2nc3c(c(N4CCN(C)CC4)n2)CCC3c2ccc(F)cc2)ccc1-n1cnc(Cl)c1 (single isomer, unassigned) [Example 30B, N-(4-(4-chloro-1H-imidazol-1-yl)-3-methoxyphenyl)-7-(4-fluorophenyl)-4-(4-methylpiperazin-1-yl)-6,7-dihydro-5H-cyclopenta[d]pyrimidin-2-amine] |
| 12 nM | COc1cc(Nc2nc3c(c(N4CC[C@@H](F)C4)n2)CCC3c2ccc(F)cc2)ccc1-n1cnc(Cl)c1 (single isomer, unassigned) [Example 38A] |
| 130 nM | CC[C@H](COC)Nc1nc(Nc2ccc(-n3cnc(Cl)c3)c(OC)c2)nc2c1CCC2c1ccc(F)cc1 (single isomer, unassigned) [Example 48B] |

Same assay, conditions: H4 APP751 SWE clone 8.20 cells, 19 h incubation; class symbols; read-out: Activity Rating (Aβ42 cellular IC50)

| Compound | IC50 |
| --- | --- |
| COc1cc(Nc2nc3c(c(N4CCC(N(C)C)C4)n2)CCC3c2ccc(F)cc2)ccc1-n1cnc(Cl)c1 (single isomer, unassigned) [Example 29B, N-(4-(4-chloro-1H-imidazol-1-yl)-3-methoxyphenyl)-4-(3-(dimethylamino)pyrrolidin-1-yl)-7-(4-fluorophenyl)-6,7-dihydro-5H-cyclopenta[d]pyrimidin-2-amine] | 10 to 100 nM |
| COCC(Nc1nc(Nc2ccc(-n3cnc(Cl)c3)c(OC)c2)nc2c1CCC2c1ccc(F)cc1)C1CC1 (single isomer, unassigned) [Example 45A, N2-(4-(4-chloro-1H-imidazol-1-yl)-3-methoxyphenyl)-N4-(1-cyclopropyl-2-methoxyethyl)-7-(4-fluorophenyl)-6,7-dihydro-5H-cyclopenta[d]pyrimidine-2,4-diamine] | 10 to 100 nM |
| COCC(Nc1nc(Nc2ccc(-n3cnc(Cl)c3)c(OC)c2)nc2c1CCC2c1ccc(F)cc1)C1CC1 (single isomer, unassigned) [Example 45C, N2-(4-(4-chloro-1H-imidazol-1-yl)-3-methoxyphenyl)-N4-(1-cyclopropyl-2-methoxyethyl)-7-(4-fluorophenyl)-6,7-dihydro-5H-cyclopenta[d]pyrimidine-2,4-diamine] | 10 to 100 nM |
| COCC(Nc1nc(Nc2ccc(-n3cnc(Cl)c3)c(OC)c2)nc2c1CCC2c1ccc(F)cc1)C1CC1 (single isomer, unassigned) [Example 45D, N2-(4-(4-chloro-1H-imidazol-1-yl)-3-methoxyphenyl)-N4-(1-cyclopropyl-2-methoxyethyl)-7-(4-fluorophenyl)-6,7-dihydro-5H-cyclopenta[d]pyrimidine-2,4-diamine] | 1.5 to 9.9 nM |
| COc1cc(Nc2nc3c(c(N(C)C)n2)CCC3c2ccc(F)cc2)ccc1-n1cnc(Cl)c1 (single isomer, unassigned) [Example 46A, N^2-(4-(4-chloro-1H-imidazol-1-yl)-3-methoxyphenyl)-7-(4-fluorophenyl)-N^4,N^4-dimethyl-6,7-dihydro-5H-cyclopenta[d]pyrimidine-2,4-diamine] | 1.5 to 9.9 nM |

Now from value to molecule:

| IC50 | Compound |
| --- | --- |
| 10 to 100 nM | COc1cc(Nc2nc3c(c(N(C)C)n2)CCC3c2ccc(F)cc2)ccc1-n1cnc(Cl)c1 (single isomer, unassigned) [Example 46B, N^2-(4-(4-chloro-1H-imidazol-1-yl)-3-methoxyphenyl)-7-(4-fluorophenyl)-N^4,N^4-dimethyl-6,7-dihydro-5H-cyclopenta[d]pyrimidine-2,4-diamine] |
| 1.5 to 9.9 nM | COc1cc(Nc2nc(N[C@H](C)C3CC3)c3c(n2)C(c2ccc(F)cc2)CC3)ccc1-n1cnc(Cl)c1 (single isomer, unassigned) [Example 49A] |
| 10 to 100 nM | COc1cc(Nc2nc(N[C@H](C)C3CC3)c3c(n2)C(c2ccc(F)cc2)CC3)ccc1-n1cnc(Cl)c1 (single isomer, unassigned) [Example 49B] |
| 1.5 to 9.9 nM | COc1cc(Nc2nc(N[C@@H](C)C3CC3)c3c(n2)C(c2ccc(F)cc2)CC3)ccc1-n1cnc(Cl)c1 (single isomer, unassigned) [Example 50A] |
| 10 to 100 nM | COc1cc(Nc2nc(N[C@@H](C)C3CC3)c3c(n2)C(c2ccc(F)cc2)CC3)ccc1-n1cnc(Cl)c1 (single isomer, unassigned) [Example 50B] |
| 1.5 to 9.9 nM | CNc1nc(Nc2ccc(-n3cnc(Cl)c3)c(OC)c2)nc2c1COCC2c1ccccc1 (single isomer, unassigned) [Example 51B, N^2-(4-(4-chloro-1H-imidazol-1-yl)-3-methoxyphenyl)-N^4-methyl-8-phenyl-7,8-dihydro-5H-pyrano[4,3-d]pyrimidine-2,4-diamine] |
| 1.5 to 9.9 nM | CCN(C)c1nc(Nc2ccc(-n3cnc(Cl)c3)c(OC)c2)nc2c1COCC2c1ccccc1 (single isomer, unassigned) [Example 52A, N^2-(4-(4-Chloro-1H-imidazol-1-yl)-3-methoxyphenyl)-N^4-ethyl-N^4-methyl-8-phenyl-7,8-dihydro-5H-pyrano[4,3-d]pyrimidine-2,4-diamine] |
| 10 to 100 nM | CCN(C)c1nc(Nc2ccc(-n3cnc(Cl)c3)c(OC)c2)nc2c1COCC2c1ccccc1 (single isomer, unassigned) [Example 52B, N^2-(4-(4-Chloro-1H-imidazol-1-yl)-3-methoxyphenyl)-N^4-ethyl-N^4-methyl-8-phenyl-7,8-dihydro-5H-pyrano[4,3-d]pyrimidine-2,4-diamine] |
| 1.5 to 9.9 nM | COc1cc(Nc2nc3c(c(N(C)C)n2)COCC3c2ccccc2)ccc1-n1cnc(Cl)c1 (single isomer, unassigned) [Example 53A, N^2-(4-(4-Chloro-1H-imidazol-1-yl)-3-methoxyphenyl)-N^4,N^4-dimethyl-8-phenyl-7,8-dihydro-5H-pyrano[4,3-d]pyrimidine-2,4-diamine] |
| 10 to 100 nM | COc1cc(Nc2nc3c(c(N(C)C)n2)COCC3c2ccccc2)ccc1-n1cnc(Cl)c1 (single isomer, unassigned) [Example 53B, N^2-(4-(4-Chloro-1H-imidazol-1-yl)-3-methoxyphenyl)-N^4,N^4-dimethyl-8-phenyl-7,8-dihydro-5H-pyrano[4,3-d]pyrimidine-2,4-diamine] |
| 1.5 to 9.9 nM | CNc1nc(Nc2ccc(-n3cnc(Cl)c3)c(OC)c2)nc2c1COCC2c1ccc(Cl)cc1 (single isomer, unassigned) [Example 64A, N^2-(4-(4-chloro-1H-imidazol-1-yl)-3-methoxyphenyl)-8-(4-chlorophenyl)-N^4-methyl-7,8-dihydro-5H-pyrano[4,3-d]pyrimidine-2,4-diamine] |
| 10 to 100 nM | CNc1nc(Nc2ccc(-n3cnc(Cl)c3)c(OC)c2)nc2c1COCC2c1ccc(Cl)cc1 (single isomer, unassigned) [Example 64B, N^2-(4-(4-chloro-1H-imidazol-1-yl)-3-methoxyphenyl)-8-(4-chlorophenyl)-N^4-methyl-7,8-dihydro-5H-pyrano[4,3-d]pyrimidine-2,4-diamine] |

Same assay, conditions: H4 APP751 SWE clone 8.20 cells, 19 h incubation; read-out: Activity Rating (Aβ42 cellular IC50), numeric value

| IC50 | Compound |
| --- | --- |
| 5.3 nM | COc1cc(Nc2nc3c(c(N(C)C)n2)COCC3c2ccc(Cl)cc2)ccc1-n1cnc(Cl)c1 (single isomer, unassigned) [Example 65A, N^2-(4-(4-chloro-1H-imidazol-1-yl)-3-methoxyphenyl)-8-(4-chlorophenyl)-N^4,N^4-dimethyl-7,8-dihydro-5H-pyrano[4,3-d]pyrimidine-2,4-diamine] |
| 160 nM | COc1cc(Nc2nc3c(c(N(C)C)n2)COCC3c2ccc(Cl)cc2)ccc1-n1cnc(Cl)c1 (single isomer, unassigned) [Example 65B, N^2-(4-(4-chloro-1H-imidazol-1-yl)-3-methoxyphenyl)-8-(4-chlorophenyl)-N^4,N^4-dimethyl-7,8-dihydro-5H-pyrano[4,3-d]pyrimidine-2,4-diamine] |
